Reference: patent US9580398B2, “Compounds, compositions, and methods for modulating ferroptosis and treating excitotoxic disorders” (The Trustees of Columbia University in the City of New York, priority 2012, dated 2017)
Where two headings read alike, the source gives them in different places. Where a SMILES comes first, the peptide text is derived from it. [ ]: non-standard residue; d: D form. The star is where a group is joined. Nle = CCCC[C@H](N)C(=O)O; Cbz = O=C(OCc1ccccc1)*; CH2F = FC*

Assays:
[1] = test system: HT-1080, BJeLR and Calu-1 cells; assay: Modulatory profiling of small molecule cell death inhibitors against erastin; type: cell-based, human; conditions: erastin 10 μM, 24 hours, 10-point, 4-fold dilution series
Method: The day before the experiment, cells were seeded in black, 384-well clear bottom plates (Corning) at a density of 1,000 cells/well using a Beckman Biomek FX Workstation. All compounds (except 3-methyladenine and chloroquine, which were diluted in water) were diluted in DMSO at 250 times the final highest test concentration, and aliquoted across a 384-well plate (Greiner, Monroe, N.C.). A ten-point, 4-fold dilution series of each inhibitor in DMSO was made using a multichannel pipette. Replicates of this mother plate were stored at −20° C. […] Medium was removed from cells and replaced with 36 μL medium containing DMSO (0.1%) or erastin (10 μM final concentration). Using the Biomek FX, 4 μL were then transferred from each inhibitor daughter plate into the DMSO-containing or erastin-containing assay plates. For 3-methyladenine and chloroquine, inhibitors were prepared fresh in media at 10-fold the final concentration in the presence of DMSO or 10 μM erastin. These solutions were manually pipetted onto cells in 384-well format. Assay plates were incubated at 37° C. for 24 hours. Viability was assessed using Alamar Blue.
The modulatory effect (Me) for drug-drug interactions was computed as follows. First, plate-based background correction was performed using Alamar Blue values from empty (cell-free) wells included on each plate. Next, within each experiment, 100% viability is determined as the average Alamar Blue score for cells treated with modulator=DMSO and lethal=DMSO, and all Alamar Blue values were scaled from 0 to 1 with the DMSO×DMSO condition=1. The individual effects of each modulator and lethal (e.g. in the presence of DMSO) at all tested doses were then ascertained. […] Next, BExp was compared to the actual observed viability. […] By default, Me in DMSO-treated cells is equal to 0. […] Me values for each inhibitor-lethal drug combination were hierarchically clustered and plotted as a heatmap using the heatmaps.2 function of the gplots library in R.

[2] = test system: ROS production in HT-1080 cells; assay: Analysis of reactive oxygen species production by flow cytometry (H2DCFDA, C11-BODIPY, MitoSOX); type: cell-based, human
Method: The day before the experiment, 200,000 cells/well were seeded in 6-well dishes (Corning Inc., Corning, N.Y.). […] Data was collected from the FL1 (H2DCFDA, C11-BODIPY) or FL2 channel (MitoSOX). A minimum of 10,000 cells were analyzed per condition.

HT-1080 cells = assay: Erastin-induced death in HT-1080 cells with co-treated inhibitors (viability, microscopy); type: cell-based, human; conditions: HT-1080 cells; added up to 6 hours after erastin
Method: (§1) Cell viability was typically assessed in 384-well format by Alamar Blue (Invitrogen) fluorescence (ex/em 530/590) measured on a Victor3 platereader (Perkin Elmer, Waltham, Mass.). In some experiments, Trypan Blue dye exclusion counting was performed using an automated cell counter (ViCell, Beckman-Coulter Inc., Brea, Calif.). Cell viability in test conditions is reported as a percentage relative to the negative control treatment.
Phase contrast images were acquired using an AMG EVOS FL (Advanced Microscopy Group) microscope equipped with a 10× phase-contrast objective. Three independent fields were acquired for each experimental condition. Representative samples from one field of view are shown.

[3] = test system: rat organotypic hippocampal slice culture (OHSC); assay: Glutamate-induced excitotoxic cell death in organotypic hippocampal slice cultures (PI uptake); type: cell-based; conditions: 5 mM L-glutamate 3 hours; 24 hours after; DG, CA1, CA3; Fer-1 2 μM, CPX 5 μM, MK-801 10 μM
Method: OHSCs were cultured as previously described (Morrison et al., 2002) with approval from Columbia University's Institutional Animal Care and Use Committee (IACUC). Briefly, Sprague Dawley rat pups (P8-P10) were rapidly decapitated, and the hippocampus placed in ice-cold Gey's balanced salt solution (Sigma). 400 μm thick sections were cut using a Mcllwain tissue chopper and immediately plated on Millicell cell culture inserts (Millipore, Billerica, Mass.) in Neurobasal (Invitrogen) media supplemented with B27 (1×, Invitrogen), GlutaMAX (1 mM, Invitrogen), and D-glucose (4.5 mg/mL, Sigma) at 37° C. and 5% CO2. After 2 days in vitro (DIV), the media was changed to medium containing serum comprised of 50% DMEM (Sigma), 25% heat-inactivated horse serum (Sigma), 25% Hank's balanced salt solution (Sigma), GlutaMAX (1 mM, Invitrogen), and D-glucose (4.5 mg/mL, Sigma). Medium was changed every 2-3 days.
After 10-14 DIV, OBSCs were exposed to an excitotoxic injury consisting of a 3 hour exposure to 5 mM L-glutamate in SFM (Morrison et al., 2002). Only healthy OHSCs defined as those with less than 5% cell death in all regions of the hippocampus (DG, CA3, CA1) pre-injury were used for experiments. After the 3 hour exposure, the cultures were placed in fresh serum free media (SFM) containing 75% DMEM, 25% Hank's balanced salt solution, GlutaMAX (1 mM), D-glucose (4.5 mg/mL) until cell death was quantified at 24 hours. If drugs were added, they were added at the same time as glutamate.
Quantification of cell death has been described previously (Cater et al., 2007; Morrison et al., 2002). Brightfield images of the hippocampal cultures were taken before injury for identification of regions of interest (ROI) including the dentate gyrus (DG), CA3 and CA1. Propidium iodide (PI, Invitrogen) was used as a fluorescent signal for cell death, and images were taken before the induction of injury and 24 hours following injury. […] Percentage cell death was expressed as the number of pixels in the ROI above a threshold in the PI fluorescent image divided by the total number of pixels in the ROI.

[4] = 2,2-diphenyl-1-picrylhydrazyl (DPPH) assay, cell-free antioxidant potential; conditions: test compound 0.05 mM, absorbance at 517 nm
Method: The stable radical DPPH (Blois, 1958) was dissolved in methanol to a final concentration of 0.05 mM. 1 mL of DPPH solution was added to 2 μL of each test compound dissolved in DMSO. The final concentration of each test compound was 0.05 mM. Samples were inverted several times and allowed to incubate at room temperature for 10 minutes. Samples were then aliquoted to white 96-well solid-bottom dishes (Corning) and absorbance at 517 nm was recorded using a TECAN M200 plate reader. All values were normalized to background (methanol only). The experiment was repeated twice. Results within each trial normalized to DMSO (=1.0), then averaged across trials.

[5] = test system: erastin (10 μM)-treated HT-1080 cells; assay: Inhibition of death in erastin (10 μM)-treated HT-1080 cells, viability by Alamar Blue; type: cell-based, human; conditions: for EC50: Homo sapiens, HT-1080, inhibition of death in erastin (10 μM)-treated HT-1080 cells, Alamar Blue, from dose response curves; for ability to prevent erastin-induced death: erastin 10 μM, HT-1080 cells
Method: as §1
Flow cytometry data was analyzed using FloJo (9.3.2, Tree Star, Inc., Ashland, Oreg.). Chemical structures were drawn using ChemDraw Ultra (Cambridgesoft, Cambridge, Mass.). Computational determination of log P (Slog P function) was performed using MOE 2010.10 (Chemical Computing Group, Montreal, […].). Viability data was analyzed using Excel (Microsoft Corp., […].). Summary data and heatmaps were generated using R. Dose-response curves were computed by 4-parameter logistic regression in Prism 5.0c (GraphPad Software). Images were manipulated using Photoshop CS4 and Illustrator CS4 (Adobe, San Jose, Calif.).
The ability of various compounds disclosed herein to inhibit death in erastin (10 μM)-treated HT-1080 cells were tested. Cell viability was assessed by Alamar Blue. EC50 values (nM) were computed from dose response curves.

In the case of `Cc1c(C)c2c(c(C)c1O)CCC(C)(C(=O)O)O2` (stereo not shown) [trolox], the “modulation of erastin-induced death” value [1] is reported as “rescued from erastin-induced death”, the “effect on erastin-induced ROS accumulation” value ([2]; erastin 10 μM, HT-1080 cells, H2DCFDA, C11-BODIPY) is reported as “prevented the accumulation of H2DCFDA-sensitive ROS” and the “protection from death on late addition” value (HT-1080 cells) is reported as “substantial protection from death”.
With `Cc1cc(C2CCCCC2)n(O)c(=O)c1` [CPX, ciclopirox olamine] the “glutamate-induced cell death (PI uptake)” value [3] was “attenuated significantly and to an almost identical extent”.
In the case of `N#CC(=C(/N)Sc1ccccc1N)/C(C#N)=C(\N)Sc1ccccc1N` [U0126], the “modulation of erastin-induced death” value [1] is reported as “rescued from erastin-induced death”, the “effect on erastin-induced ROS accumulation” value [2] is reported as “prevented the accumulation of H2DCFDA-sensitive ROS” and the “protection from death on late addition” value (HT-1080 cells) is reported as “substantial protection from death”.
For `CCOC(=O)c1ccc(NC2CC2)c(N)c1` [SRS8-72, ethyl 3-amino-4-(cyclopropylamino)benzoate], the “intrinsic antioxidant capability (DPPH)” value [4] was “retained equivalent intrinsic antioxidant capability”, the EC50 [5] was 880 nM and the “ability to prevent erastin-induced death” value [5] was “an order of magnitude less potent than Fer-1”.
For `CN1C(=O)C(Cc2c[nH]c3ccccc23)NC1=S` (stereo not shown) [necrostatin-1], the “modulation of erastin-induced death” value [1] was “not consistently modulated”.
With `COC(=O)C[C@H](NC(=O)[C@H](C)NC(=O)[C@@H](NC(=O)OCc1ccccc1)C(C)C)C(=O)CF` [z-VAD-fmk] (Cbz-Val-Ala-Asp(OMe)-CH2F) the “modulation of erastin-induced death” value [1] was “not consistently modulated”.
For `CO/C1=C\C(C)=C\[C@@H](C)[C@@H](O)[C@@H](C)C/C(C)=C/C=C/[C@H](OC)[C@@H]([C@@H](C)[C@@H](O)[C@H](C)[C@@]2(O)C[C@@H](O)[C@H](C)[C@@H](C(C)C)O2)OC1=O` [bafilomycin A1], the “modulation of erastin-induced death” value [1] was “not consistently modulated”.
For `CCN(CC)CCCC(C)Nc1ccnc2cc(Cl)ccc12` (stereo not shown) [chloroquine], the “modulation of erastin-induced death” value [1] was “not consistently modulated”.
For `C[C@]12N[C@H](Cc3ccccc31)c1ccccc12` [MK-801], the “glutamate-induced cell death (PI uptake)” value [3] was “attenuated significantly and to an almost identical extent”.
With `CCOC(=O)[C@H]1O[C@@H]1C(=O)N[C@@H](CC(C)C)C(=O)NCCC(C)C` [E64d] the “modulation of erastin-induced death” value [1] was “not consistently modulated”.
With `CCOC(=O)c1ccc(NC2CCCCC2)c([N+](=O)[O-])c1` [SRS8-24, ethyl 4-(cyclohexylamino)-3-nitrobenzoate] the “intrinsic antioxidant capability (DPPH)” value [4] was “destroyed the antioxidant capability”, the EC50 [5] was > 10000 nM and the “ability to prevent erastin-induced death” value [5] was “destroyed the antioxidant capability of Fer-1, as well as its ability to prevent erastin (10 μM)-induced death”.
For `C=C(C)[C@H]1Cc2c(ccc3c2O[C@@H]2COc4cc(OC)c(OC)cc4[C@@H]2C3=O)O1` [rotenone], the “MitoSOX-sensitive mitochondrial ROS production” value ([2]; HT-1080 cells, 6 hours, erastin 10 μM, rotenone 250 nM) was “enhanced MitoSOX-sensitive ROS production”.
In the case of `CCCC[C@@H](C=O)NC(=O)[C@H](CC(C)C)NC(=O)[C@H](CC(C)C)NC(C)=O` [ALLN] (Ac-Leu-Leu-[Nle]-aldehyde), the “modulation of erastin-induced death” value [1] is reported as “not consistently modulated”.
In the case of `Cn1cnc(N)c2ncnc1-2` [3-methyladenine], the “modulation of erastin-induced death” value [1] is reported as “not consistently modulated”.
